Measured values from paper PMC5059758, “Structural characterization of antibiotic self-immunity tRNA synthetase in plant tumour biocontrol agent” (Nature Communications, 2016).

What was measured:
[1] = test system: LeuRSAt (leucyl-tRNA synthetase); experiment: Aminoacylation assay, wt LeuRSAt; assay type: biochemical, A. tumefaciens; conditions: 20 nM TM84, 4 nM enzyme, 0.63 mM ATP, 28 °C, pH 7.4
Experimental: […] L-leucine (20 μCi/mmole), 5 μg/ml inorganic pyrophosphatase, 1 μM BSA, 10 μM of active in vitro transcribed tRNA^Leu and enzymes in the range of 2–8 nM. Reactions were pre-incubated with or without substrate and/or inhibitor and then carried out at 28 °C (37 °C-LeuRSHp). Aliquots of the reaction (5–10 μl) were quenched on 3 mM filter pads (Whatman, GE Healthcare) presoaked with 5% trichloroacetic acid (TCA). The pads were washed thrice with 5% TCA and 90% ethanol at 4 °C and then dried. The amount of Leu-tRNA^Leu was then quantified using scintillation counting. Each reaction was performed in triplicate and analyzed using Kaleidagraph (for Km and kcat determinations) or GraphPad Prism software (for IC50 determination).

wt AgnB2 (LeuRS) [2] = molecular target: T1, wt AgnB2 (LeuRS) (Agrobacterium radiobacter, UniProt B9JQP8); experiment: Isothermal titration calorimetry, wt AgnB2; assay type: binding, Agrobacterium radiobacter K84; conditions: ITC; for Kd: 28 °C
Experimental: (§1) Typically, about 4–8 μM active protein solution and a 10-fold higher ligand concentration were prepared in buffer containing 50 mM HEPES (pH 7.4), 20 mM KCl 10 mM MgCl2 and 1 mM β-ME. The titrations were carried out in triplicate at 28 °C. The data was then analyzed using Origin software (version 7) and fitted to a one-site or a two-site binding model to obtain the binding affinity (Kd), stoichiometry (N) and enthalpy (ΔH) for each complex.

[3] = test system: LeuRSAt Triad (P45T/N105A/M633Q); experiment: Aminoacylation assay, LeuRSAt Triad mutant; assay type: biochemical, A. tumefaciens; conditions: TM84 concentrations as high as 500 nM, 4 nM enzyme, 0.63 mM ATP
[4] = test system: LeuRSAt Triad (P45T/N105A/M633Q); experiment: Isothermal titration calorimetry, LeuRSAt Triad mutant; assay type: binding, A. tumefaciens; conditions: ITC
Experimental: as §1

[5] = test system: AgnB2 Triple (T42P/A102N/Q573M); experiment: Aminoacylation assay, AgnB2 Triple mutant; assay type: biochemical, Agrobacterium radiobacter K84; conditions: 4 nM enzyme, 0.63 mM ATP, 28 °C, pH 7.4
[6] = test system: AgnB2 Triple (T42P/A102N/Q573M); experiment: Isothermal titration calorimetry, AgnB2 Triple mutant; assay type: binding, Agrobacterium radiobacter K84; conditions: ITC
Experimental: as §1

[7] = molecular target: T2, LeuRS H. pylori (LeuRSHp) (Helicobacter pylori, UniProt P56457); experiment: Aminoacylation assay, LeuRSHp; assay type: biochemical; conditions: aminoacylation of agrobacterium tRNALeu, 37 °C, 4 nM enzyme
T2 construct: made in house
T2 sequence (P56457 whole entry): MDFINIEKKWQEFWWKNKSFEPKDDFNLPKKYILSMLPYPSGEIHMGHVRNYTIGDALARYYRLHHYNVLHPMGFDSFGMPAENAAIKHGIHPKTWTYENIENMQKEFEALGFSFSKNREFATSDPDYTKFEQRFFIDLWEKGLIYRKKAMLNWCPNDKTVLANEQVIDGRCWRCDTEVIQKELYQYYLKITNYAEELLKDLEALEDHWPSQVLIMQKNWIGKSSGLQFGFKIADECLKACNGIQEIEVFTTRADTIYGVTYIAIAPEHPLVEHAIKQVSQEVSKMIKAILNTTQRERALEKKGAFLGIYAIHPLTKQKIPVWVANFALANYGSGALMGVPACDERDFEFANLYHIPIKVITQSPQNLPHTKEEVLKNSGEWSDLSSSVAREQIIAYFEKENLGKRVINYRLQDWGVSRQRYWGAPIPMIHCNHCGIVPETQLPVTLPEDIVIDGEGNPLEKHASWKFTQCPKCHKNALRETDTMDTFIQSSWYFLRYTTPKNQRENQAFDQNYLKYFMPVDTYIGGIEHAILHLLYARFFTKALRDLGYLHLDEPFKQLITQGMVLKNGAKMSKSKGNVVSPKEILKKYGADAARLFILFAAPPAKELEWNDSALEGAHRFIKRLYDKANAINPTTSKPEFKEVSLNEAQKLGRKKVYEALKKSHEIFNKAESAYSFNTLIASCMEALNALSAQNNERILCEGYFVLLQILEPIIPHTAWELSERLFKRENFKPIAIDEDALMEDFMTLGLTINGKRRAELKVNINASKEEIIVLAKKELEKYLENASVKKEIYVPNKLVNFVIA
Experimental: (§2) Aminoacylation activities of AgnB2, LeuRSAt and their mutants were measured in 50 mM HEPES buffer (pH 7.4) containing 20 mM KCl, 25 mM MgCl2, 25 mM β-ME, 4 mM ATP, 500 μM [3,4,5-^3H] L-leucine (20 μCi/mmole), 5 μg/ml inorganic pyrophosphatase, 1 μM BSA, 10 μM of active in vitro transcribed tRNA^Leu and enzymes in the range of 2–8 nM. Reactions were pre-incubated with or without substrate and/or inhibitor and then carried out at 28 °C (37 °C-LeuRSHp). Aliquots of the reaction (5–10 μl) were quenched on 3 mM filter pads (Whatman, GE Healthcare) presoaked with 5% trichloroacetic acid (TCA). The pads were washed thrice with 5% TCA and 90% ethanol at 4 °C and then dried. The amount of Leu-tRNA^Leu was then quantified using scintillation counting. Each reaction was performed in triplicate and analyzed using Kaleidagraph (for Km and kcat determinations) or GraphPad Prism software (for IC50 determination).

[8] = molecular target: T3, AgnB2 Triple mutant + LS domain (Agrobacterium radiobacter, UniProt B9JQP8, A102N/DEL566-572/Q573M/T42P, form not given); experiment: Isothermal titration calorimetry, AgnB2 Triple mutant + LS domain; assay type: binding, Agrobacterium radiobacter K84; conditions: ITC, enzyme alone
T3 sequence (B9JQP8 1-814 T42P/A102N/Q573M/DEL566-572): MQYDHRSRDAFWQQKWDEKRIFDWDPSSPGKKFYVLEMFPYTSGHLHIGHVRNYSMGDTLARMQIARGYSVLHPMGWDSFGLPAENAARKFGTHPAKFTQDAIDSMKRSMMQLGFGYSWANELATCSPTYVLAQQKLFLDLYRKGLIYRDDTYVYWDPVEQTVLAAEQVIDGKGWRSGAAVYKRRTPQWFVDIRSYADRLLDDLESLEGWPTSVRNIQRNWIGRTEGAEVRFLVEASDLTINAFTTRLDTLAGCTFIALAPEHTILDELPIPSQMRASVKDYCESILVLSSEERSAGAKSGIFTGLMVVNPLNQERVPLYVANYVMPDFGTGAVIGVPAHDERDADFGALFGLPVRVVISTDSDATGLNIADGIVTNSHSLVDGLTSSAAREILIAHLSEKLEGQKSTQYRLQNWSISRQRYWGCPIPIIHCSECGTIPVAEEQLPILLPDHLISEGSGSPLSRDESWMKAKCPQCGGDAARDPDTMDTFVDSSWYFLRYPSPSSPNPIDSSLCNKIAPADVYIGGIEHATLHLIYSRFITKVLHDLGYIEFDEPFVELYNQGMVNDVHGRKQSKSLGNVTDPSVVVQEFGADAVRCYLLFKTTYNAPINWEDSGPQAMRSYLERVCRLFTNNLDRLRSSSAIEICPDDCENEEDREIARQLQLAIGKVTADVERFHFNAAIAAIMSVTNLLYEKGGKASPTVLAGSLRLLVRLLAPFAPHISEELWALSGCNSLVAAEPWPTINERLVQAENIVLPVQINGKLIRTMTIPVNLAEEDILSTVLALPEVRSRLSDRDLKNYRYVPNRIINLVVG
T3 sequence (Q8UBV2 585-631 partner): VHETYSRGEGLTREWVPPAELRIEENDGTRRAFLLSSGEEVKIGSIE
Description: The LS domain of LeuRSAt (141 bp) was inserted into AgnB2 (replacing the region between amino acid no. 566 and 572 with the LS domain)[37] To obtain this, the forward PCR primer was designed to contain the region of AgnB2 (∼25 bp) preceding the LS domain insertion followed by the first 25 bases of the LS domain (5′–3′). Similarly, the reverse primer was designed so as to include the last 25 bp of the LS domain (3′–5′) and the gene sequence of AgnB2 after the LS domain insertion. An extension reaction was carried out to obtain mega primers, (forward and reverse) encoding the entire LS domain (of LeuRSAt) flanked by the sequence of AgnB2 on both sides using the protocol by Wang and Malcolm[42]. DpnI digestion was then carried out to remove the wt template. The resultant mega primer was gel purified using the Qiaex II gel extraction kit (Qiagen) to be used in the second step. […]
as §1, with “The titrations were carried out in triplicate at 28 °C.” left out

[9] = molecular target: T4, AgnB2 Triple + Q413R mutant (Agrobacterium radiobacter, UniProt B9JQP8, A102N/Q413R/Q573M/T42P); experiment: Aminoacylation assay, AgnB2 Triple + Q413R mutant; assay type: biochemical, Agrobacterium radiobacter K84; conditions: fixed ATP concentration (0.675 mM), saturating leucine
T4 sequence (B9JQP8 1-814 T42P/A102N/Q573M/Q413R): T3 sequence (B9JQP8 1-814 T42P/A102N/Q573M/DEL566-572)
Experimental: as §2

AgnB2 Triple Q413R = experiment: Isothermal titration calorimetry, AgnB2 Triple Q413R mutant; assay type: binding, Agrobacterium radiobacter K84; conditions: ITC
Experimental: as §1

[10] = molecular target: LeuRSAt (leucyl-tRNA synthetase); conditions: wt LeuRSAt, aminoacylation; read-out: Ki app; cited from earlier work
agrobacterial IleRS = conditions: cited from earlier work
wt AgnB2 (LeuRS) [11] = molecular target: T1, wt AgnB2 (LeuRS); experiment: Aminoacylation assay, wt AgnB2; conditions: for Ki: 2 nM enzyme
CC(C)C[C@H](N)C(=O)O [12] = experiment: ATP/PPi exchange assay (amino acid activation), LeuRSAt; assay type: biochemical, A. tumefaciens; conditions: other: ATP-PPi exchange, substrate, 28 °C, pH 7.4
Experimental: The formation of Leu-AMP by ATP/PPi exchange assays was performed as described earlier. Briefly, the reaction buffer contained 50 mM HEPES buffer (pH 7.4), 20 mM KCl, 10 mM MgCl2, 500 μM L-leucine, 4 mM ATP, 1 mM tetrasodium pyrophosphate (NaPPi), 10 μCi/mmol [^32P] NaPPi and 1 μM bovine serum albumin (BSA). The reaction was initiated by addition of 1–4 nM of active enzyme and incubated at 28 °C. Aliquots (5 μl each) were collected over 30 min and quenched in a 10% charcoal slurry containing 0.5% HCl and 50 μl of 200 mM sodium pyrophosphate in 1 M HCl. Liquid scintillation counting was then used to measure the amount of [^32P]-PPi incorporation into ATP that was adsorbed onto the charcoal.

[13] = molecular target: T5, AgnB2 (TM84-resistant leucyl-tRNA synthetase) (Agrobacterium radiobacter K84 (plasmid pAgK84)) (UniProt B9JQP8); experiment: ITC
T5 sequence: T3 sequence (B9JQP8 1-814 T42P/A102N/Q573M/DEL566-572)

CC(C)C[C@H](N)C(=O)O [14] = experiment: purified protein, by the assay type; conditions: substrate, 28 °C, pH 7.4

**Q.** What does the source list for `CC(C)[C@@H](O)[C@H](O)C(=O)NP(=O)(O)OC[C@@H]1C[C@H](O)[C@H](n2cnc3c(N)ncnc32)O1` [TM84]?
**A.** activity remaining [1]: 4%; reduction in AgnB2-binding affinity compared with LeuRSAt (wt AgnB2 (LeuRS) [2]; binary binding, AgnB2 vs LeuRSAt (ref 23)): 6.9 fold; decrease in affinity, AgnB2·tRNA·TM84 compared with LeuRSAt·tRNA·TM84 complex (wt AgnB2 (LeuRS) [2]; ternary complex): ~330 fold; Kd (wt AgnB2 (LeuRS) [2]; ligand binding to AgnB2 alone, pH 7.4): 1050 nM; Kd (wt AgnB2 (LeuRS) [2]; TM84 binding to AgnB2 with pre-bound tRNA, AgnB2 with pre-bound tRNA): 332 nM; effect on aminoacylation activity [3]: almost no effect; decrease in TM84 binding affinity compared with LeuRSAt, enzyme alone ([4]; LeuRSAt Triad alone): 10 fold; decrease in TM84 binding affinity compared with LeuRSAt, enzyme pre-incubated with tRNALeu ([4]; LeuRSAt Triad pre-incubated with tRNALeu): 28 fold; activity remaining [5]: 13%; effect of mutations on TM84 binding, enzyme alone ([6]; AgnB2 Triple alone vs wt AgnB2): no significant effect; increase in binding of TM84 to the AgnB2·tRNALeu complex ([6]; AgnB2 Triple with tRNALeu vs wt AgnB2): 3.5 fold; IC50 [7]: 34 ± 1.14 nM; increase in TM84 binding alone compared with wt AgnB2 [8]: fourfold; IC50 [9]: 2900 nM; binding of TM84 to enzyme·tRNALeu complex tighter than wt AgnB2 (AgnB2 Triple Q413R; AgnB2 Triple Q413R·tRNALeu complex): sixfold; binding of TM84 to enzyme alone tighter than wt enzyme (AgnB2 Triple Q413R; enzyme alone): 1.3 fold; Ki [10]: 0.3 ± 0.1 nM; inhibition of agrobacterial IleRS (agrobacterial IleRS): does not inhibit; IC50 (wt AgnB2 (LeuRS) [11]): 61300 nM; change in aminoacylation activity (wt AgnB2 (LeuRS) [11]; 4 nM enzyme, 0.63 mM ATP, 28 °C, pH 7.4): No change; mode of inhibition with regards to ATP and leucine (wt AgnB2 (LeuRS) [11]; aminoacylation, Lineweaver-Burk): weak competitive inhibitor; Ki (wt AgnB2 (LeuRS) [11]; apparent TM84 Ki, varying leucine, aminoacylation, fixed ATP 1 mM, 28 °C, pH 7.4): 1380 ± 280 nM; Ki (wt AgnB2 (LeuRS) [11]; apparent TM84 inhibition constant (Ki), varying ATP, aminoacylation, fixed leucine, AgnB2·tRNALeu pre-incubated, 28 °C, pH 7.4): 4720 ± 750 nM

**Q.** Which Km (CC(C)C[C@H](N)C(=O)O [12]) does the source give for LeuRSAt (Agrobacterium fabrum str. C58) here?
**A.** Its Km is 9.7 ± 0.7 µM.

**Q.** What about the kcat (CC(C)C[C@H](N)C(=O)O [12]) of the same molecule?
**A.** Its kcat is 85 ± 1.6 s⁻¹.

**Q.** For tRNALeu (agrobacterial), which Kd [13] is on record?
**A.** The Kd was 310 nM.

**Q.** What does the source list for “wt AgnB2 (LeuRS) (Rhizobium rhizogenes K84)”?
**A.** Km (CC(C)C[C@H](N)C(=O)O [14]; other: ATP-PPi exchange): 12 ± 2 µM; kcat (CC(C)C[C@H](N)C(=O)O [14]; other: ATP-PPi exchange): 73 ± 3.6 s⁻¹; Km (CC(C)C[C@H](N)C(=O)O [14]; other: aminoacylation): 28.7 ± 7.3 µM; kcat (CC(C)C[C@H](N)C(=O)O [14]; other: aminoacylation): 0.35 ± 0.03 s⁻¹
